In patent publication US20260248969A1, “PEPTIDE MULTIMER PRODUCTS AND METHODS” (REGENTS OF THE UNIVERSITY OF MICHIGAN, priority 2023, published 2026):
Residues, ends and D or L forms follow the SMILES beside them. No end group written: not given here. *: point of attachment. IRDye800CW = CC1(C)C(/C=C/C2=C(Oc3ccc(S(=O)(=O)O)cc3)C(=C/C=C3/N(CCCCS(=O)(=O)O)c4ccc(S(=O)(=O)O)cc4C3(C)C)/CCC2)=[N+](CCCCCC(=O)*)c2ccc(S(=O)(=O)[O-])cc21

How the values were obtained:
CD44 [1] = experiment: Co-localization of peptide monomer and anti-CD44-AF488 binding to SK-Hep1 cells; details: SK-Hep1 human HCC cells
Method: Specific binding of the optimized IRDye800-labeled […] monomer peptide was substantiated using a co-localization of binding to known antibodies. Human Hep3B, HepG2, and Sk-Hep1 HCC cells that overexpress early-stage HCC targets were used. A Pearson's correlation coefficient ρ was calculated from fluorescence intensities on merged images. Measurements were made from n=10 cells chosen randomly from 3 slides. Data for CD44 is shown in FIG. 4A, and similar data was obtained for GPC3 and EpCAM. As shown in the figure, binding by WKG*-IRDye800 and anti-CD44-AF488 to the surface (arrows) of Sk-Hep1 cells co-localized with a correlation of p=0.81 measured on the merged image.

CD44 [2] = experiment: Apparent dissociation constant by flow cytometry on SK-Hep1 cells; type: binding, human; details: 0-200 nM, R^2=0.99
Method: The equilibrium dissociation constant kd=1/ka was calculated by performing using a least square fit of the data to the non-linear equation I=(I0+Imaxka[X])/(I0+ka[X]). I0 and Imax are the initial and maximum fluorescence intensities, corresponding to no peptide and at saturation, respectively, and [X] represents the concentration of the bound peptide. Results are the mean values from 3 independent experiments.
The apparent dissociation constant (kd) of the IRDye800-labeled WKG* peptide monomer was measured to provide an estimate of binding affinity. The IRDye800-labeled monomer was incubated with human HCC cells over a range of concentrations. Fluorescence intensities were measured with flow cytometry. WKG*-IRDye800 was incubated with SK-Hep1 cells over concentrations ranging from 0-200 nM, and the fluorescence intensity was measured with flow cytometry.

[3] = mouse, in vivo, iv
Method: C) Serum stability of WKG*-IRDye800 (200 μM in 200 μL of PBS) in mice (n=5) was measured following intravenous injection. Serum was collected at various time points from 0-24 hours post-injection.
The optimized WKG* monomer labeled with IRDye800 was incubated in serum to determine half-life T1/2. Stability in mouse serum over time was measured using analytical RP-HPLC. The relative concentration was calculated from the area-under-the-peak, and the intensities were fit to a first order kinetic model, and the serum half-life T1/2 was determined.

[4] = system: orthotopic HCC PDX tumors; experiment: In vivo MR imaging of tumor uptake, orthotopic HCC PDX model; parameters: species or system mouse; details: peak uptake 0.5 hours post-injection, same tumor in n=3 mice
Method: (§1) In vivo imaging was performed to assess HCC tumor uptake, biodistribution, and clearance of the optimized multimer. […] The target-to-background (T/B) ratio for the multimer was ~1.8-fold greater than that for monomer and free Gd-DOTA from the same tumor in n=3 animals. The target region was segmented using the Chan-Vese algorithm. The background region was defined by dilating the target region. Clearance of the MR signal occurred after ~4 hours post-injection. Data from whole body NIR fluorescence images collected in vivo from the orthotopic HCC tumor following intravenous injection of the lead candidate EpCAM target and control peptides is shown in FIG. 6C. […] For the differences and variances shown in FIG. 60, the power is >95% to obtain P<0.01 for target versus control using n=8 mice per group.
In vivo tumor uptake of the peptide multimer was evaluated in an orthotopic HCC PDX mouse model using T1-weighted MR images. The Gd-DOTA labeled peptide multimer and peptide monomers specific for GPC3, CD44, and EpCAM were intravenously injected at a concentration of 300 μM in 200 μL of PBS via the tail vein of mice bearing orthotopic PDX tumors, FIG. 13A-E. Gd-DOTA (300 μM in 200 μL PBS) was also intravenously injected as a control. T1-weighted MR images were acquired using a 7T horizontal bore small animal magnet (SGRAD 205/120/HD/S, Agilent Technologies). […]

[5] = system: orthotopic HCC PDX tumors; experiment: In vivo whole body NIR fluorescence imaging of orthotopic HCC PDX tumors; parameters: species or system mouse; details: P<1×10^−4 by paired t-test
Method: as §1

[6] = target: T1, CD44 (cluster of differentiation 44) (human, UniProt P16070 21-742); experiment: quantified fluorescence on CCA-156 cells, 5 uM; multimer signal comes from cells that carry GPC3, CD44 and EpCAM
T1 construct: whole, on cells; Endogenous target on human HCC cells and tissues; no recombinant protein was used
T1 sequence (P16070 21-742): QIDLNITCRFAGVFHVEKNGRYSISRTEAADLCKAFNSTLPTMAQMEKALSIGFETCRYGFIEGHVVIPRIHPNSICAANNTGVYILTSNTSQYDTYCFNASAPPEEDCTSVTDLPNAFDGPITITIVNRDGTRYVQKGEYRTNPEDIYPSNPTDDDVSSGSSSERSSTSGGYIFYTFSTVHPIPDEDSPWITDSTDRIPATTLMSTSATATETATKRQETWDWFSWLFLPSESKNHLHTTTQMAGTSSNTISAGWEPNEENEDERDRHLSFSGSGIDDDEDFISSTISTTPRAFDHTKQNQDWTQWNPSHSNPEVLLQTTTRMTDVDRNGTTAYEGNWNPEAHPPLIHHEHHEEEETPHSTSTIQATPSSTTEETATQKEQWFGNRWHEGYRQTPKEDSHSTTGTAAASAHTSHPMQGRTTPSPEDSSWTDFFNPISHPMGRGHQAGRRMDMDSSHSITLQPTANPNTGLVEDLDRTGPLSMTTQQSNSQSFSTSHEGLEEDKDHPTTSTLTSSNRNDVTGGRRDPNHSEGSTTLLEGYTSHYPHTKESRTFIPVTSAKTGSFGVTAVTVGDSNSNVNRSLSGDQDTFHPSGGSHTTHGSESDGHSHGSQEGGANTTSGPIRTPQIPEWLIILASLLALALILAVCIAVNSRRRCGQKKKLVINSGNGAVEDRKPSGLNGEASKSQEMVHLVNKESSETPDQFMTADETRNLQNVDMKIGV
Method: (§2) Approximately 10³ CCA-156 cells were grown on the cover glass in a 24-well plate to ~90% confluence. The cells were washed with PBS twice and incubated with 5 μM of either Cy5.5-labeled peptide multimer or peptide monomer for 5 min on ice. The cells were then washed with PBS for 3X, fixed with 4% paraformaldehyde (PFA) in PBS for 15 min, washed with PBS for twice, then mounted on glass slides with ProLong Gold reagent containing DAPI (Invitrogen).

Glypican-3 (GPC3) = target: T2, Glypican-3 (GPC3) (human, UniProt P51654 25-554); experiment: as above
T2 construct: whole, on cells; Endogenous target on human HCC cells and tissues
T2 sequence (P51654 25-554 limits assumed): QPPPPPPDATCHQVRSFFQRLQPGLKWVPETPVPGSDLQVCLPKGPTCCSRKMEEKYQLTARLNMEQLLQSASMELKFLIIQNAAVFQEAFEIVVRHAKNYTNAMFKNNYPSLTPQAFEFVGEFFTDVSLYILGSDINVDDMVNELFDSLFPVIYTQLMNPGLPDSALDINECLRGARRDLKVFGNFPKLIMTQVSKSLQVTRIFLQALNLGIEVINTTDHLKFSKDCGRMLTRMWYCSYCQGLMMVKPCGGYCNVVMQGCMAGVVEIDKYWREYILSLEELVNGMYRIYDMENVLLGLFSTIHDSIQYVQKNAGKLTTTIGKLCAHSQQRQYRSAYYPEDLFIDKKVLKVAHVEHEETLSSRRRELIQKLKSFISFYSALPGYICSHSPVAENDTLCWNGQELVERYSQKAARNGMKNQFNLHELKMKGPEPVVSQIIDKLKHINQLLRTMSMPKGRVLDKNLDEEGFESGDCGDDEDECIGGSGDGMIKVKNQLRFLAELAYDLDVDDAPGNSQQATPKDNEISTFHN
Method: as §2

[7] = target: T3, Epithelial cell adhesion molecule (EpCAM) (human, UniProt P16422 24-314); experiment: as above
T3 construct: whole, on cells; Endogenous target on human HCC cells and tissues
T3 sequence (looked up): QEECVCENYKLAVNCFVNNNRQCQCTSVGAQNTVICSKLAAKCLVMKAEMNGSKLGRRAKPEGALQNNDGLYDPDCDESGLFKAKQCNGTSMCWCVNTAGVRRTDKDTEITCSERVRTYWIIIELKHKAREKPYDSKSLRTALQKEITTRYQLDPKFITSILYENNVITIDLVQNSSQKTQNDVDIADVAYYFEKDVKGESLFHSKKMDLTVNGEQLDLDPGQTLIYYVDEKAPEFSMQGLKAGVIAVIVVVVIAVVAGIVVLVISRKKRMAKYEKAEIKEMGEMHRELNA
Method: as §2

[8] = target: T3, Epithelial cell adhesion molecule …; experiment: fluorescence microscopy, 5 uM on CCA-156 cells
Method: as §2

[9] = target: T1, CD44 (cluster of differentiation 44); experiment: flow cytometry, labeled peptide 0-200 nM on SK-Hep1 human HCC cells; apparent dissociation constant
Method: A) WKG*-IRDye800 and anti-CD44-AF488 bind intensely to the surface (arrows) of SK-Hep1 human HCC cells. A Pearson's correlation coefficient of r=0.81 was measured from the merged image. […] B) An apparent dissociation constant of kd=43 nM, R²=0.99, was measured for WKG*-IRDye800 binding to SK-Hep1 cells. The equilibrium dissociation constant kd=1/kₐ was calculated by performing using a least square fit of the data to the non-linear equation […]. I₀ and Iₘₐₓ are the initial and maximum fluorescence intensities, corresponding to no peptide and at saturation, respectively, and [X] represents the concentration of the bound peptide. Results are the mean values from 3 independent experiments. C) Serum stability of WKG*-IRDye800 (200 μM in 200 μL of PBS) in mice (n=5) was measured following intravenous injection. […] The fluorescence intensity I(t) was measured and fit to a first-order kinetics model I(t)=Iₒ+A×exp(−Bt), and a serum half-life of T_{1/2}=5.1 hours was calculated.
The apparent dissociation constant (kd) of the IRDye800-labeled WKG* peptide monomer was measured to provide an estimate of binding affinity. […] Fluorescence intensities were measured with flow cytometry. WKG*-IRDye800 was incubated with SK-Hep1 cells over concentrations ranging from 0-200 nM, and the fluorescence intensity was measured with flow cytometry. […]

With `CC(C)C[C@H](NC(=O)[C@H](Cc1ccc(O)cc1)NC(=O)[C@H](CO)NC(=O)[C@H](Cc1c[nH]c2ccccc12)NC(=O)CNC(=O)[C@H](CCCCN)NC(=O)[C@@H](N)Cc1c[nH]c2ccccc12)C(=O)N[C@@H](Cc1c[nH]c2ccccc12)C(=O)N[C@H](C(=O)N[C@@H](CCC(N)=O)C(=O)N[C@@H](CCC(N)=O)C(=O)N[C@@H](C)C(=O)NCC(=O)NCC(=O)NCC(=O)N[C@@H](CO)C(=O)N[C@@H](CCCCNC(=O)CCCCCN1C(=CC=C2CCCC(C=CC3=[N+](CCCCS(=O)(=O)[O-])c4ccc(S(=O)(=O)O)cc4C3(C)C)=C2Oc2ccc(S(=O)(=O)O)cc2)C(C)(C)c2cc(S(=O)(=O)O)ccc21)C(N)=O)[C@@H](C)O` [WKG*-IRDye800] (H-WKGWSYLWTQQAGGGSK(IRDye800CW)-NH2) the “binding to the surface of SK-Hep1 cells” value (CD44 [1]) was “bind intensely”, the “Pearson's correlation coefficient, peptide and anti-CD44-AF488” value (CD44 [1]; merged image) was 0.81 and the Kd (CD44 [2]) was 0.043 µM. For the same molecule, the half-life [3] was 5.1 h.

Molecule `O=C([O-])CN1CCN(CC(=O)[O-])CCN(CC(=O)O)CCN(CC(=O)[O-])CC1.[Gd+3]` [free Gd-DOTA, Gd-DOTA] has a T/B ratio [4] of 0.99±0.04.

In the case of “HPD*-IRDye800: lead EpCAM peptide HPDMFTRTHSHN (SEQ ID NO: 7) labeled with IRDye800 (also: IRDye800 label, site not given here)”, the “NIR fluorescence intensity versus control PFH*-IRDye800” value [5] is reported as “significantly greater”.

B1: Cy5.5-labeled peptide multimer (ALL*, WKG* and HPD* on a tri-lysine linker) (designed binder)
peptide 1: ALLANHEELFQT
peptide 2: WKGWSYLWTQQA
peptide 3: HPDMFTRTHSHN
modifications: also: each peptide joined through PEG3 extension to a tri-lysine linker, Cy5.5 label, site not given here
notes: also called Cy5.5-labeled multimer; not shown: The branched tri-lysine linker with PEG3 extensions and the Cy5.5 label
In the case of B1, the “fold increase of fluorescence intensity versus the CD44 monomer WKG*-Cy5.5” value [6] is reported as 1.84 fold, the “fold increase of fluorescence intensity versus the GPC3 monomer ALL*-Cy5.5” value (Glypican-3 (GPC3)) is reported as 5.48 fold and the “fold increase of fluorescence intensity versus the EpCAM monomer HPD*-Cy5.5” value [7] is reported as 2 fold.

HPDMFTRTHSHN (also: Cy5.5 label, site and linker not given here) [HPD*-Cy5.5 (Cy5.5-labeled EpCAM peptide monomer, HPDMFTRTHSHN)]: binds [8].

B2: WKG*-IRDye800 (IRDye800-labeled WKG* peptide monomer, WKGWSYLWTQQA) (peptide)
peptide: WKGWSYLWTQQA
modifications: also: IRDye800 label, site not given here
notes: also called IRDye800-labeled WKD* monomer peptide
In the case of B2, the Kd [9] is reported as 0.043 µM.
